Biological target: T1, N-terminally GST-tagged DLK (catalytic domain amino acid 1-520) (Homo sapiens, UniProt Q12852)
T1 construct: N-terminally GST-tagged DLK (catalytic domain amino acid 1-520); purchased Carna Bioscience
T1 sequence (Q12852 1-520): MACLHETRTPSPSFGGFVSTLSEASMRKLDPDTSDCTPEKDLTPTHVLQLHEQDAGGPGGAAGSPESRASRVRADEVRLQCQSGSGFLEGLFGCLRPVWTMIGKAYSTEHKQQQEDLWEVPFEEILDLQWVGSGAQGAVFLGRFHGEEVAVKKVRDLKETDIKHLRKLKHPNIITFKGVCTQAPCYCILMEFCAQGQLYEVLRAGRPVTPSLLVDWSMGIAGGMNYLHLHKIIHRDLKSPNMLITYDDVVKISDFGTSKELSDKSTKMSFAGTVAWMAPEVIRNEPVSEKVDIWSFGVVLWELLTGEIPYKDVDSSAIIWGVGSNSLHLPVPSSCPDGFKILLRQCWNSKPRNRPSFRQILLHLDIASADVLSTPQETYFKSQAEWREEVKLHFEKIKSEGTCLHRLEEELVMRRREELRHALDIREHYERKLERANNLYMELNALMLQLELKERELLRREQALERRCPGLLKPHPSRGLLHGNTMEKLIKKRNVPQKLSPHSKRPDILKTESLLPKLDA
Experiment: DLK TR-FRET inhibition assay
Format: biochemical
Settings: 5 nM GST-DLK, 40 nM HIS-MKK4 K131M substrate, 30 μM ATP, 60 minutes at ambient temperature
Description: DLK TR-FRET inhibition assay: DLK kinase reactions (20 μL) containing 5 nM N-terminally GST-tagged DLK (catalytic domain amino acid 1-520) (Carna Bioscience), 40 nM N-terminally HIS-tagged MKK4 K131M substrate, and 30 μM ATP in kinase reaction buffer (50 mM HEPES, pH 7.5, 0.01% Triton X-100, 0.01% Bovine γ-Globulins, 2 mM DTT, 10 mM MgCl2 and 1 mM EGTA), and testing compound 1:3 serial diluted starting at 20 uM were incubated at ambient temperature for 60 minutes in 384 well OptiPlate (Perkin Elmer). To quench kinase reactions and detect phosphorylated MKK4, 15 μL of TR-FRET antibody mixture containing 2 nM anti-phosphorylated MKK4 labeled with Europium cryptate (Cisbio) and 23 nM anti-HIS labeled with D2 (Cisbio) in detection buffer (25 mM Tris pH 7.5, 100 mM NaCl, 100 mM EDTA, 0.01% Tween-20, and 200 mM KF) was added to the reaction mixture. The detection mixture was incubated for 3 hours at ambient temperature and the TR-FRET was detected with an EnVision multilabel plate reader (Perkin-Elmer) using the LANCE/DELFIA Dual Enh label from Perkin-Elmer (excitation filter: UV2 (TRF) 320 and emission filters: APC 665 and Europium 615).

Row | Molecule | Ki
1 | CC(C)n1nc(-c2cnc(N)c(C(F)(F)F)c2)cc1[C@H]1[C@@H]2C[C@H](N3CCOC[C@H]3C)C[C@@H]21 [compound 46, 5-(1-isopropyl-5-((1R,3s,5S,6R)-3-((R)-3-methylmorpholino)bicyclo[3.1.0]hexan-6-yl)-1H-pyrazol-3-yl)-3-(trifluoromethyl) pyridin-2-amine] | 1.85 nM
2 | COC1CCN([C@H]2C[C@@H]3[C@H](C2)[C@H]3c2cc(-c3cnc(N)c(OC(F)F)c3)nn2C(C)C)C1 (stereo partly drawn) [compound 73, 3-(difluoromethoxy)-5-(1-isopropyl-5-((lR,3r,5S,6r)-3-(3-methoxy-pyrrolidin-1-yl)bicyclo[3.1.0]hexan-6-yl)-1H-pyrazol-3-yl) pyridin-2-amine] | 1.81 nM
3 | COCCO[C@@H]1C[C@@H]2[C@H](C1)[C@H]2c1cc(-c2cnc(N)c(C(F)(F)F)c2)nn1C(C)C [compound 275, 5-(1-isopropyl-5-((1R,3s,5S,6r)-3-(2-methoxyethoxy)bicyclo [3.1.0]hexan-6-yl)-1H-pyrazol-3-yl)-3-(trifluoromethyl)pyridin-2-amine] | 4.7 nM
4 | CC(C)n1nc(-c2cnc(N)c(OC(F)F)c2)cc1[C@H]1[C@@H]2C[C@H](N3CCOCC(F)(F)C3)C[C@@H]21 [compound 181, 5-(5-((1R,3r,5S,6r)-3-(6,6-difluoro-1,4-oxazepan-4-yl)bicyclo [3.1.0]hexan-6-yl)-1-isopropyl-1H-pyrazol-3-yl)-3-(difluoromethoxy) pyridin-2-amine] | 2.4 nM
5 | CC(C)n1nc(-c2cnc(N)c(OC(F)(F)F)c2)cc1[C@H]1[C@@H]2C[C@H](N3CCN(C)C[C@@H]3C)C[C@@H]21 [compound 240, 5-(5-((1R,3r,5S,6S)-3-((S)-2,4-dimethylpiperazin-1-yl)bicyclo [3.1.0]hexan-6-yl)-1-isopropyl-1H-pyrazol-3-yl)-3-(trifluoromethoxy) pyridin-2-amine] | 2.1 nM
6 | CC(C)n1nc(-c2cnc(N)c(C(F)(F)F)c2)cc1[C@H]1[C@@H]2C[C@H](N(C)C)C[C@@H]21 [compound 188, 5-(5-((lR,3r,5S,6r)-3-(dimethylamino)bicyclo[3.1,0]hexan-6-yl)-1-isopropyl-1 H-pyrazol-3-yl)-3-(trifluoromethyl)pyridin-2-am inc] | 2.8 nM
7 | CC(C)n1nc(-c2cnc(N)c(OC(F)(F)F)c2)cc1[C@H]1[C@@H]2C[C@H](N3CC(F)C3)C[C@@H]21 [compound 29, 5-(5-((1R,3r,5S,6r)-3-(3-fluoro-azetidin-1-yl)bicyclo[3.1.0]hexan-6-yl)-1-isopropyl-1H-pyrazol-3-yl)-3-(trifluoromethoxy) pyridin-2-amine] | 2.83 nM
8 | CC(C)n1nc(-c2cnc(N)c(OC(F)F)c2)cc1[C@H]1[C@@H]2C[C@H](NCC(F)F)C[C@@H]21 [compound 252, 5-(5-((1R,3r,5S,6r)-3-((2,2-difluoro-ethyl)amino)bicyclo[3.1.0]hexan-6-yl)-1-isopropyl-1H-pyrazol-3-yl)-3-(difluoromethoxy) pyridin-2-amine] | 3 nM
9 | CC(C)n1nc(-c2cnc(N)c(OC(F)(F)F)c2)cc1[C@H]1[C@@H]2C[C@H](N3CC4(CCCO4)C3)C[C@@H]21 [compound 226, 5-(5-((1R,3r,5S,6r)-3-(5-oxa-2-azaspiro[3.4]octan-2-yl)bicyclo [3.1.0]hexan-6-yl)-1-isopropyl-1H-pyrazol-3-yl)-3-(trifluoro-methoxy)pyridin-2-amine] | 3.2 nM
10 | CC(C)n1nc(-c2cnc(N)c(OC(F)F)c2)cc1[C@H]1[C@@H]2CC(N3CCOCC(F)C3)C[C@@H]21 (single isomer, unassigned) [compound 169] | 4.1 nM
11 | CO[C@H]1CCN([C@@H]2C[C@@H]3[C@H](C2)[C@H]3c2cc(-c3cnc(N)c(C(F)(F)F)c3)nn2C(C)C)C1 [compound 90, (1-isopropyl-5-((1R,3s,5S,6S)-3-((S)-3-methoxypyrrolidin-1-yl)bicyclo[3.1.0]hexan-6-yl)-1H-pyrazol-3-yl)-3-(trifluoromethyl) pyridin-2-amine] | 5.95 nM
12 | 5-(1-isopropyl-5-((1R,3s,5S,6R)- 3-((R)-2-methylmorpholino) bicyclo[3.1.0]hexan-6-yl)-1H- pyrazol-3-yl)-3-(trifluoromethoxy) pyridin-2-amine [compound 11] | 1.87 nM
13 | CC(C)n1nc(-c2cnc(N)c(C(F)(F)F)c2)cc1[C@H]1[C@@H]2C[C@H](n3cccn3)C[C@@H]21 [compound 111, 5-(5-((1R,3r,5S,6r)-3-(1H-pyrazol-1-yl)bicyclo[3.1.0]hexan-6-yl)-1-isopropyl-1H-pyrazol-3-yl)-3-(trifluoromethyl)pyridin-2-amine] | 8.61 nM
14 | Nc1ncc(-c2cc([C@H]3[C@@H]4C[C@H](N5CCOCC5)C[C@@H]43)nn2C2CCC2)cc1OC(F)F [compound 132, 5-(1-cyclobutyl-3-((1R,3r,5S,6r)-3-morpholinobicyclo[3.1.0]hexan-6-yl)-1H-pyrazol-5-yl)-3-(difluoromethoxy)pyridin-2-amine] | 258 nM
15 | COC1CN([C@@H]2C[C@@H]3[C@H](C2)[C@H]3c2cc(-c3cnc(N)c(OC(F)F)c3)nn2C(C)C)C1 [compound 62, 3-(difIuoromethoxy)-5-(1-isopropyl-5-((1R,3s,5S,6r)-3-(3-methoxy-azetidin-1-yl)bicyclo[3.1.0]hexan-6-yl)-1H-pyrazol-3-yl) pyridin-2-amine] | 2.73 nM

More lines, in order of falling Ki, values ahead:

Row | Ki | Molecule
16 | 18.8 nM | CC(C)n1nc(-c2cnc(N)c(C(F)(F)F)c2)cc1[C@H]1[C@@H]2C[C@@H](O)C[C@@H]21 [compound 5, (1R,3s,5S,6r)-6-(3-(6-amino-5-(trifluoromethyl)pyridin-3-yl)-1-isopropyl-1H-pyrazol-5-yl) bicyclo[3.1.0]hexan-3-ol]
17 | 9.1 nM | CCN1CCN([C@H]2C[C@@H]3[C@H](C2)[C@H]3c2cc(-c3cnc(N)c(C(F)(F)F)c3)nn2C(C)C)CC1 [compound 16, 5-(5-((1R,3r,5S,6r)-3-(4-ethylpiperazin-1-yl)bicyclo[3.1.0]hexan-6-yl)-1-isopropyl-1H-pyrazol-3-yl)-3-(trifluoromethyl)pyridin-2-amine]
18 | 8.9 nM | CC(C)n1nc(-c2cnc(N)c(C(F)(F)F)c2)cc1[C@H]1[C@@H]2C[C@@H](OC3COC3)C[C@@H]21 [compound 294, 5-(1-isopropyl-5-((1R,3s,5S,6r)-3-(oxetan-3-yloxy)bicyclo[3.1.0]hexan-6-yl)-1H-pyrazol-3-yl)-3-(trifluoromethyl)pyridin-2-amine]
19 | 4.08 nM | CC(C)n1nc(-c2cnc3cnn([C@@H](C)c4ccccn4)c3c2)cc1[C@H]1[C@@H]2C[C@@H](N3CCOCC3)C[C@@H]21 [compound 32, 4-((1R,3R,5S,6r)-6-(1-isopropyl-3-(1-((S)-1-(pyridin-2-yl)ethyl)-1H-pyrazolo[4,3-b]pyridin-6-yl)-1H-pyrazol-5-yl)bicyclo[3.1.0]hexan-3-yl)morpholine]
20 | 3.59 nM | CC(C)n1nc(-c2cnc(N)c(C(F)(F)F)c2)cc1[C@H]1[C@@H]2C[C@H](N3CCC3)C[C@@H]21 [compound 30, 5-(5-((1R,3r,5S,6r)-3-(azetidin-1-yl)bicyclo[3.1.0]hexan-6-yl)-1-isopropyl-1H-pyrazol-3-yl)-3-(trifluoromethyl)pyridin-2-amine]
21 | 2.97 nM | CC(C)n1nc(-c2cnc(N)c(OC(F)(F)F)c2)cc1[C@H]1[C@@H]2C[C@H](N(C)CC3COC3)C[C@@H]21 [compound 19, 5-(1-isopropyl-5-((1R,3r,5S,6r)-3-(methyl(oxetan-3-ylmethyl)amino)bicyclo[3.1.0]hexan-6-yl)-1H-pyrazol-3-yl)-3-(trifluoro-methoxy)pyridin-2-amine]
22 | 1.2 nM | CC(C)n1nc(-c2cnc(N)c(C(F)(F)F)c2)cc1[C@H]1[C@@H]2C[C@@H](N3CCN4CCCC4C3)C[C@@H]21 (single isomer, unassigned) [compound 261]
23 | 1.16 nM | CC(C)n1nc(-c2cnc(N)c(OC(F)(F)F)c2)cc1[C@H]1[C@@H]2C[C@@H](N3CCCOCC3)C[C@@H]21 [compound 99, 5-(5-((1R,3s,5S,6r)-3-(1,4-oxazepan-4-yl)bicyclo[3.1.0]hexan-6-yl)-1-isopropyl-1H-pyrazol-3-yl)-3-(trifluoromethoxy)pyridin-2-amine]

Reference: US9365583B2, “Substituted pyrazoles and uses thereof” (Genentech, Inc., priority 2013, dated 2016)
